SMILES strings stand for the structures.

The subject of the first assay is Trypanosoma brucei brucei. Put plainly: microbe, parasite or virus in culture.
Settings: not given
It counts as functional, organism-based, STIB 795.
A word on the IC50: it is the concentration needed to halve the response being measured. High values mean a need for much substance, low ones inhibition by little substance. `Cc1cc2cc3c(cc2c(C)n1)c1ccccc1n3C`: the IC50 was found to be 4.73 µM.

The same assay, now with this note: Trypanosoma brucei, STIB 795.
`CC(=O)N1/C(=C/c2ccncc2)C(=O)c2ccccc21` had an IC50 of more than 10.4 µM.
Still for that read-out and setting: to `CN(C)c1ccc(C(Nc2nccs2)c2ccc3cccnc3c2O)cc1` (stereo unspecified) belongs more than 10.4 µM; to `CC(C)CCn1c(C(C)N2CCCCC2)nc2ccccc21` (stereo unspecified), more than 10.4 µM.
On the same count and under the same terms, to `COC(C(=O)NCc1ccc(Cl)cc1)(c1ccccc1)c1ccccc1` belongs more than 10.4 µM; to `CCCN1C/C(=C/c2cccc(F)c2)C(=O)/C(=C/c2cccc(F)c2)C1`, more than 10.4 µM.
Same read-out and setting: to `CCN(CC)S(=O)(=O)c1cccc(N/N=C2\C=CC(=O)c3cccnc32)c1` belongs more than 10.4 µM; to `N=C(Cc1cccc2ccccc12)NOC(=O)c1cccs1`, more than 10.4 µM.
For `C=CCN1C(=O)/C(=N/NC(=S)SC)c2ccccc21`, the IC50 is more than 10.4 µM.
Same read-out and setting: the value for `C=CCn1c(=O)c(=O)n(CCC(=O)NCc2cccnc2)c2ccccc21` was more than 10.4 µM.
Take `CCOC(=O)c1sc(-n2[nH]c(C)c(Cc3ccc(Cl)cc3)c2=O)nc1C`: the IC50 was more than 10.4 µM.
In turn, `O=C(CN1C2=NCCN2c2ccccc21)c1ccc(Cl)cc1` yielded a half-maximal inhibitory concentration (IC50) of more than 10.4 µM.
Still for that read-out and setting: to `N/C(=N\OC(=O)c1ccc(F)cc1)c1cccnc1` belongs more than 10.4 µM; to `C=CCc1cccc(/C=N/NC(=O)c2cccs2)c1O`, more than 10.4 µM; to `O=C(Nc1nc(NC(=O)c2ccco2)n(-c2ccccc2)n1)c1ccccc1`, more than 10.4 µM.
Consider `CCOC(=O)c1ccc(NC(=O)NC23CC4(C)CC(C)(CC(C)(C4)C2)C3)cc1`, for which the 50% inhibitory concentration (IC50) was more than 10.4 µM.
Same read-out and setting: to `COc1cc(/C=C/c2cc(C(F)(F)F)nc(=O)[nH]2)ccc1O` belongs more than 10.4 µM; to `CCN(CC)C1=C(n2nnc3ccccc32)C(=O)c2ccccc2C1=O`, more than 10.4 µM.
The same measure, in the same setting: the value for `Cc1cc(N2CCC(C)CC2)nc2ccc(NC(=O)c3cccc(Cl)c3)cc12` was more than 10.4 µM.
On to `Oc1ccc2ccccc2c1/N=N/c1nccs1`, for which the concentration for half-maximal inhibition (IC50) was more than 10.4 µM.
On the same count and under the same terms, to `CCC(=O)c1sc(Nc2ccc(F)c(Cl)c2)nc1N` belongs more than 10.4 µM.
`CCOc1cc(CNC2CCCC2)cc(Cl)c1OCc1ccccc1` showed a 50% inhibitory concentration (IC50) of more than 10.4 µM.
In turn, `COc1ccccc1CCNCc1ccc(OC)c(OCc2ccccc2)c1` showed an IC50 of more than 10.4 µM.
`Cc1cc(OCC(=O)NNc2ccccc2)c(C(C)C)cc1Cl` showed a half-inhibitory concentration (IC50) of more than 10.4 µM.
Turning to `CCOC(=O)C(=Cc1ccc(Br)cc1)C(=O)OCC`, the IC50 was more than 10.4 µM.
In the case of `CN(C)c1ccc(C(=O)NN=C2C=C(C(C)(C)C)C(=O)C(C(C)(C)C)=C2)cc1`, the half-maximal inhibitory concentration (IC50) was more than 10.4 µM.
On the same count and under the same terms, the value for `O=C(NCC1CCCO1)C(=O)N/N=C/c1c(O)ccc2ccccc12` (stereo unspecified) was more than 10.4 µM; that for `Cc1ccccc1C(=O)O/N=C(\N)c1ccccn1` was more than 10.4 µM.
Compound `CCCC(=O)NC(c1ccc2c(c1)OCO2)c1cc(Cl)c2cccnc2c1O` (stereo unspecified) had an IC50 of more than 10.4 µM.
Still for that read-out and setting: the value for `O=C(N/N=C/c1ccc(O)c2ncccc12)c1ccco1` was more than 10.4 µM.
Turning to `CSc1cccc(C(=O)Nc2cc(F)c(F)cc2Cl)c1`, the concentration for half-maximal inhibition (IC50) was more than 10.4 µM.
As for `CSc1ccc(C(Nc2ccccn2)c2ccc3cccnc3c2O)cc1` (stereo unspecified), the IC50 is more than 10.4 µM.
The compound `Cc1nc2ncnn2c(Sc2ccc(NC(=O)CC(C)C)cc2)c1C` yielded an IC50 of more than 10.4 µM.
Take `COc1cccc(/C=C2/CN(C(C)C)C/C(=C\c3cccc(OC)c3)C2=O)c1`: the 50% inhibitory concentration (IC50) was more than 10.4 µM.
Same read-out and setting: the value for `CCN(CC)c1cc(C)c2cc(NC(=O)/C=C/c3ccc(OC)cc3)ccc2n1` was more than 10.4 µM; that for `CC(C)(C)N(NC(=O)Nc1ccc(Cl)cc1)C(=O)c1ccccc1F` was more than 10.4 µM.
The same measure, in the same setting: to `CC1=C/C(=N\OC(=O)c2ccccc2Cl)CC(C)(C)C1` belongs more than 10.4 µM; to `COc1ccc(CNC2=C(C(=S)Nc3ccccc3)C(=O)CC(C)(C)C2)cc1`, more than 10.4 µM.
On the same count and under the same terms, the value for `Cc1c(-c2noc(C(=O)NC(C)C)n2)oc2c(C)cccc12` was more than 10.4 µM; that for `CCCCN(CCCC)CCNC(=O)Nc1ccc(Cl)cc1` was more than 10.4 µM.
With `O=C(O/N=C(/c1ccc2c(c1)OCO2)N1CCCCC1)c1ccccc1`, the IC50 was more than 10.4 µM.
On the same count and under the same terms, the value for `Nc1ccccc1SC(CC(=O)c1ccc(F)cc1)c1ccccc1` (stereo unspecified) was more than 10.4 µM; that for `Cc1c(-c2cccc(O)c2)ccc2nc(N)nc(N)c12` was more than 10.4 µM.
On the same count and under the same terms, the value for `OCCN1CCN(Cc2ccccc2Sc2ccc3ccccc3c2)CC1` was more than 10.4 µM; that for `COc1ccc(NC2=NC(=O)C(CO)(CO)S2)cc1` was more than 10.4 µM.
The same measure, in the same setting: the value for `CNc1nsc(C(=O)c2ccc(C)cc2)c1N` was more than 10.4 µM; that for `O=C(CCC(=O)Nc1cccc(Cl)c1)N/N=C/c1c(O)ccc2ccccc12` was more than 10.4 µM.
Compound `C=CCc1cccc(/C=N/NC(=O)c2nonc2C)c1O` yielded an IC50 of more than 10.4 µM.
`CCOC(=O)c1cnc2c(CC)cccc2c1NC1CC(C)(C)NC(C)(C)C1` returned an IC50 of more than 10.4 µM.
With `Clc1nn2nnnc2c2ccccc12`, the 50% inhibitory concentration (IC50) is more than 10.4 µM.
`Cc1cc(C(=O)N/N=C/c2cc(/N=N/c3ccccc3)ccc2O)[nH]n1` gave an IC50 of more than 10.4 µM.
Compound `CN(C)c1ccc(N=c2cc(-c3ccccc3)sc(-c3ccccc3)c2)cc1` showed an IC50 of more than 10.4 µM.
The same measure, in the same setting: to `CC(C)COCc1ccc(O)c2ncccc12` belongs more than 10.4 µM.
With `CC(C)N1C/C(=C/c2ccsc2)C(=O)/C(=C/c2ccsc2)C1`, the half-maximal inhibitory concentration (IC50) was more than 10.4 µM.
Consider `O=C1C(=O)/C(=C/c2ccccc2)CCC/C1=C/c1ccccc1`, for which the half-maximal inhibitory concentration (IC50) is more than 10.4 µM.
In the case of `OCCN1CCN(C2Cc3ccccc3Sc3cc(Cl)c(F)cc32)CC1` (stereo unspecified), the half-inhibitory concentration (IC50) was more than 10.4 µM.
On the same count and under the same terms, to `Cc1ccsc1C=NN1CCN(c2ccc(Cl)cc2)CC1` belongs more than 10.4 µM; to `Cc1ccc(NC(=O)CN(C)C(=O)c2ccc3c(c2)nnn3C(C)C)c(Cl)c1`, more than 10.4 µM; to `Oc1c(C(c2ccccn2)N2CCCCC2)cc(Cl)c2cccnc12` (stereo unspecified), more than 10.4 µM.
The compound `O=C1C(=O)c2c(C(=O)c3cccs3)coc2-c2ccccc21` showed a half-inhibitory concentration (IC50) of more than 10.4 µM.
The same measure, in the same setting: to `O=C(CCn1nnc2ccccc21)N/N=C/c1cc(Br)ccc1O` belongs more than 10.4 µM; to `CCOC(=O)c1ccc(Nc2nc(-c3cccnc3)nc3ccccc23)cc1`, more than 10.4 µM; to `O=C(/C=C/c1ccccc1)Nc1c(-c2ccccc2)nc2ccc(Cl)cn12`, more than 10.4 µM.
The same measure, in the same setting: to `CC1=C/C(=N\OC(=O)c2ccccc2Br)CC(C)(C)C1` belongs more than 10.4 µM; to `O=C(N/N=C\c1ccc(-c2cccc(Cl)c2Cl)o1)c1ccc(F)cc1`, more than 10.4 µM.
For `Cc1ccc(Cl)cc1N1CCN(CCN)CC1`, the IC50 is more than 10.4 µM.
`CN(C)CCC1=Cc2cc(Cl)ccc2Sc2ccccc21` had an IC50 of more than 10.4 µM.
On the same count and under the same terms, to `Fc1ccccc1Cn1c(C2CCCO2)nc2ccccc21` (stereo unspecified) belongs more than 10.4 µM; to `Cc1nn(C(=N)N)c(C)c1C1c2ccccc2CCc2ccccc21`, more than 10.4 µM.
`Cc1ccc(S(=O)(=O)C(CC(=O)c2ccco2)c2ccc(Cl)cc2)cc1` (stereo unspecified) gave an IC50 of more than 10.4 µM.
Same read-out and setting: the value for `CC(C)(C)c1ccc(C(CN)c2ccc(Oc3ccccc3)cc2)cc1` (stereo unspecified) was more than 10.4 µM; that for `Clc1ccc(Sc2ccc(/C=N/n3cnnc3)o2)cc1` was more than 10.4 µM; that for `Cc1ccc(S(=O)(=O)/N=C2\C=C(N3CCOCC3)C(=O)c3ccccc32)cc1` was more than 10.4 µM.
Same read-out and setting: the value for `O=C1C(=O)N(Cc2cc(F)cc(F)c2)c2ccc(Br)cc21` was more than 10.4 µM; that for `Cc1cc(C)c2nc(C)cc(Nc3ccc(N(C)C)cc3)c2c1` was more than 10.4 µM.
The same measure, in the same setting: the value for `N#Cc1c(Cl)ncc2c1Nc1ccccc1C2Sc1ccccc1` (stereo unspecified) was more than 10.4 µM; that for `Cc1cc2cc3c(cc2c(C)n1)c1ccccc1n3C` was 5.19 µM; that for `CC1CC(OCC(O)CN2CCC(Cc3ccccc3)CC2)CC(C)(C)C1` (stereo unspecified) was more than 10.4 µM.
`O=C(/C=C/c1ccc(F)cc1)n1cnc2ccccc21` displayed an IC50 of more than 10.4 µM.
On the same count and under the same terms, to `Cn1c(=O)n(C)c2cc(N3CCCCC3)c(NC(=O)c3ccco3)cc21` belongs more than 10.4 µM; to `C1CCC(Nc2nc3nonc3nc2NC2CCCCC2)CC1`, more than 10.4 µM.
For the compound `O=c1c(-c2ccccc2)c(-c2ccccc2)[nH]c2ccccc12`, the half-inhibitory concentration (IC50) was more than 10.4 µM.
The same measure, in the same setting: to `CCOc1ccc2c(C)nc(NC3=NC(C)=CC(C)(C)N3)nc2c1` belongs more than 10.4 µM.
Regarding `COCc1nc2ccccc2n1CCCCOc1cccc(C)c1`, the IC50 was more than 10.4 µM.
Take `Brc1ccc(C2Nc3cccc4cccc(c34)N2)o1`: the IC50 is more than 10.4 µM.
Still for that read-out and setting: to `COCCN1CSC(=S)N(Cc2ccc(OC)cc2)C1` belongs more than 10.4 µM; to `CC(=O)c1ccc2c(c1)[nH]c1cc(C(C)=O)ccc12`, more than 10.4 µM.
The same measure, in the same setting: the value for `C=CCn1c(Oc2ccccc2Cl)nc2c1c(=O)n(C)c(=O)n2C` was more than 10.4 µM; that for `Cc1nc2ccc3nc(NC(=O)c4ccc(Cl)cc4Cl)sc3c2s1` was more than 10.4 µM.
The same measure, in the same setting: to `COc1ccc(S(=O)(=O)C(CC(=O)c2ccccc2)c2ccccc2)cc1` (stereo unspecified) belongs more than 10.4 µM; to `Cn1c(NC(=O)c2ccccc2NC(=O)c2ccccc2)nc2ccccc21`, more than 10.4 µM.
In turn, `CCOC(=O)N1CCN(c2ccc(/C=C(\C#N)c3nc4ccccc4[nH]3)o2)CC1` registered a concentration for half-maximal inhibition (IC50) of more than 10.4 µM.
Compound `CN(CC(=O)Nc1nncs1)S(=O)(=O)c1ccc(Br)cc1` had a concentration for half-maximal inhibition (IC50) of more than 10.4 µM.
Still for that read-out and setting: the value for `O=C(O)CSc1cc(NS(=O)(=O)c2ccccc2)c2ccccc2c1O` was more than 10.4 µM.
Compound `COc1ccc(-c2noc(CCC(=O)Nc3ccncc3)n2)cc1OC` yielded a half-inhibitory concentration (IC50) of more than 10.4 µM.
As to `CCCC(CCC)C(=O)Nc1ccc(O)cc1C(=O)O`, the IC50 is more than 10.4 µM.
Regarding `Cn1ccnc1-c1c(-c2ccc(Cl)cc2)nc(-c2ccc(Cl)cc2)n1O`, the half-inhibitory concentration (IC50) is more than 10.4 µM.
Still for that read-out and setting: the value for `[H]/N=C(/N)SCc1nc2n(Cc3ccccc3)c3ccccc3n2c1C(=O)OC` was more than 10.4 µM; that for `NC(=S)N/N=C/c1ccc(OCc2c(Cl)cccc2Cl)cc1` was more than 10.4 µM; that for `CCc1cc(-c2n[nH]c(C)c2-c2nc3ccccc3s2)c(O)cc1O` was more than 10.4 µM.
Still for that read-out and setting: the value for `Oc1ccc(/C=N/N2CCN(c3ccccc3)CC2)cc1O` was more than 10.4 µM.
On the same count and under the same terms, to `COc1ccc(CN2CCc3nc(N4CCC(C)CC4)ncc3C2)c(OC)c1` belongs more than 10.4 µM; to `COc1cccc(/C=N/NC(=O)c2ccccc2I)c1O`, more than 10.4 µM; to `OCCNCc1c(OCc2ccc(Cl)cc2Cl)ccc2ccccc12`, more than 10.4 µM.
Consider `O=c1c(Cl)c(Cl)cnn1C12CC3CC(CC(C3)C1)C2`, for which the IC50 was more than 10.4 µM.
`CCN(CC)c1ccc(/C=N\NC(=O)c2ccccn2)c(O)c1` returned an IC50 of more than 10.4 µM.

For the origin of these results see ChEMBL document CHEMBL2094269, “WEHI/Eskitis Trypanosoma b. brucei screening data”.
